In patent US20220241409A1, “WATER SOLUBLE ADJUVANT AND COMPOSITION CONTAINING SAME” (Sumitomo Dainippon Pharma Co., Ltd., priority 2019, published 2022):

Columns and labels:
[1] = test system: HLA-A*02:01 transgenic mouse; test: In vivo adjuvant activity, CTL induction with vaccine c, IFNγ ELISPOT (Test 9); settings: 32.5 ng per body added to vaccine c versus no compound; twice, one week interval
Procedure: The in vivo adjuvant activity of the compounds prepared in Example 3 was evaluated in the following procedure. To a vaccine comprising Peptide SEQ ID No. 1 prepared in Reference example 1 with a preliminarily-emulsified composition (hereinafter, referred to as “vaccine c”) was added the compound prepared in Example 3 to prepare a vaccine. The vaccine was administered to a HLA-A*02:01 transgenic mouse, and the adjuvant activity of the vaccine was evaluated by the method of testing antigen-specific CTL induction.
Specifically, Peptide SEQ ID No. 1 was dissolved in DMSO, and then diluted with water for injection to concentrations of Peptide SEQ ID No. 1 of 2 mg/mL. The diluted peptide solution was mixed and emulsified with an equal volume of a preliminarily-emulsified composition to prepare vaccine c. Vaccine c was injected to mice intradermally at the tail base area in an amount for administering 200 μg of Peptide SEQ ID No. 1 per body. Or, in the step of preparing vaccine c, the compound prepared in Example 3 was added to the diluted peptide solution to prepare a vaccine, and the prepared vaccine was injected to mice intradermally at the tail base area in an amount for administering 200 μg of Peptide SEQ ID No. 1 per body, and 32.5 ng of the compound prepared in Example 3 per body. […] Then, after removal of the supernatant from the wells, stained spots on the ELISPOT plate were counted.

[2] = test system: HLA-A*02:01/HLA-DRB1*01:01 transgenic mouse; test: In vivo adjuvant activity, helper T-cell induction with vaccine d, IFNγ ELISPOT (Test 10); settings: 3.25 ng per body added to vaccine d versus no compound; twice, one week interval
Procedure: The in vivo adjuvant activity of the compound prepared in Example 3 was evaluated in the following procedure. To a cocktail vaccine comprising Compound SEQ ID No. 1 prepared in Reference example 1 and Peptide SEQ ID No. 4 prepared in Reference example 4 with a preliminarily-emulsified composition (hereinafter, referred to as “vaccine d”) was added the compound prepared in Example 3 to prepare a vaccine. The vaccine was administered to a HLA-A*02:01/HLA-DRB1*01:01 transgenic mouse (C57BL/6CrHLA-A2.1DR1), and the adjuvant activity of the vaccine was evaluated by the method of testing antigen-specific helper T-cell induction. Peptide SEQ ID No. 4 is a helper peptide derived from HLA-DRB1*01:01-restricted WT1 protein.
Specifically, Peptide SEQ ID No. 1 and Peptide SEQ ID No. 4 were dissolved in DMSO, and then diluted with water for injection to concentrations of Peptide SEQ ID No. 1 of 0.9 mg/mL and Peptide SEQ ID No. 4 of 1.8 mg/mL. The diluted peptide solution was mixed and emulsified with an equal volume of a preliminarily-emulsified composition to prepare vaccine d. Vaccine d was injected to mice intradermally at the tail base area in an amount for administering 180 μg of Peptide SEQ ID No. 1 per body and 360 μg of Peptide SEQ ID No. 4 per body. […] Then, after removal of the supernatant from the wells, stained spots on the ELISPOT plate were counted.

Structure (SMILES): CCCCOc1nc(N)c2[nH]c(=O)n(Cc3ccc(CN(C)CCOCCOCCOCCOCCO)cc3)c2n1 [Example 3, 6-amino-2-butoxy-9-{[4-(16-hydroxy-2-methyl-5,8,11,14-tetraoxa-2-azahexadecan-1-yl)phenyl]methyl}-7,9-dihydro-8H-purin-8-one]
- CTL counts responsive to Peptide of SEQ ID No. 1 [1]: more
- T-cell counts responsive to Peptide SEQ ID No. 4 (helper T-cell) [2]: more
